The structures appear in SMILES notation. In brackets after ≈: the same amount, converted by molar mass.

For the series the following is noted: buffer; pH 7.4; 200.0 µM.
As a reminder, the kinetic solubility is solubility judged after dilution from a stock solution rather than from solid. In turn, `CS(=O)(=O)c1ccc(Cl)c(NC(=O)CNC(=O)c2ccc3c(c2)OCO3)c1` had a solubility (kinetic) greater than 61.6 µg/mL. As for `CC(=O)NCCc1ccc(C(=O)COC(=O)c2ccco2)cc1`, the figure is greater than 47.3 µg/mL; as for `COc1ccc(C)cc1S(=O)(=O)Nc1ccc2c(c1)OCCO2`, 4.1 µg/mL (≈ 12.2 µM); as for `O=C(NCCCn1ccnc1)c1cc2c(s1)CCCC2`, greater than 43.4 µg/mL. In turn, `O=C(Oc1ccc2ccc(=O)oc2c1)c1ccc([N+](=O)[O-])cc1` displayed a kinetic solubility of 0.9 µg/mL (≈ 2.89 µM).

In the case of `O=C(CN1C(=O)S/C(=C\c2ccccn2)C1=O)Nc1ccccc1`, the solubility (kinetic) turned out to be 1.5 µg/mL (≈ 4.42 µM). The compound `CCOc1ccc(C(=O)Nc2cccc3cccnc23)cc1` gave a solubility (kinetic) of 0.7 µg/mL (≈ 2.39 µM). For the compound `Cc1ccc(C)c(NC(=O)CCN2CCC(C)CC2)c1`, the kinetic solubility is greater than 41.2 µg/mL. Turning to `COc1ccc(C(=O)c2cnc[nH]2)cc1OC`, the kinetic solubility turned out to be 33 µg/mL (≈ 142 µM).

`O=C(c1ccc(F)cc1)C(C(=O)N1CCCCC1)n1ccccc1=O` (stereo unspecified) registered a solubility (kinetic) greater than 51.4 µg/mL. For `COC(=O)c1ccc(S(=O)(=O)NCc2ccco2)o1` the value was 38.8 µg/mL (≈ 136 µM); for `COc1cc(Br)c(Br)cc1N`, 14.7 µg/mL (≈ 52.3 µM). For `CCC(=O)c1ccc(OCC(=O)NC2CCN(Cc3ccccc3)CC2)cc1` the value was greater than 57.1 µg/mL.

Take `Cc1ccc2cc(/C=C/C(=O)c3ccco3)c(Cl)nc2c1`: the solubility (kinetic) came out at 3.2 µg/mL (≈ 10.7 µM). As for `CSc1nsc(SCC(=O)Nc2cccc(C(=O)O)c2)n1`, the figure is greater than 51.2 µg/mL; as for `COc1cccc(OC)c1C(=O)NCCOc1cc(C)cc(C)c1`, 28.3 µg/mL (≈ 85.9 µM); as for `COc1cc(OC)c(C=O)c(OC(=O)N(C)C)c1`, 35.8 µg/mL (≈ 141 µM). As for `CCN(C(=O)COC(=O)c1nccnc1N)c1cccc2ccccc12`, the figure is greater than 52.6 µg/mL.

`O=C1c2cc([N+](=O)[O-])ccc2-c2ncccc21` gave a solubility (kinetic) of 7.4 µg/mL (≈ 32.7 µM). As for `O=C(c1cccc([N+](=O)[O-])c1)N1CCCC(C(=O)N2CCCCC2)C1` (stereo unspecified), the figure is greater than 51.8 µg/mL. For `N#C/C(=C(/O)c1ccc(Cl)c([N+](=O)[O-])c1)c1nc2ccccc2[nH]1` the value was 0.6 µg/mL (≈ 1.76 µM); for `Cn1c(N)c(C(=O)COc2ccc(C#N)cc2)c(=O)n(C)c1=O`, 9.4 µg/mL (≈ 29.9 µM); for `COC(=O)C1CCN(C(=O)c2ccc(OC)c(S(=O)(=O)N3CCCc4ccccc43)c2)CC1`, greater than 70.9 µg/mL. For `CC(=NCc1ccco1)c1c(O)n(-c2ccccc2C)c(=O)[nH]c1=O` the value was greater than 50.9 µg/mL; for `C=CCc1ccccc1OCC(O)CNC1CCCC1.Cl` (stereo unspecified), greater than 46.8 µg/mL; for `COc1ccc(NC(=O)CCOc2ccccc2F)cc1S(=O)(=O)N1CCCCC1`, 34.8 µg/mL (≈ 79.7 µM). With `CC(=O)Nc1ccc(NC(=O)Cc2ccc(-c3ccccc3)cc2)cc1`, the kinetic solubility is less than 0.4 µg/mL. As for `CSc1nc(-c2ccccc2)nc(N2CCOCC2)c1C(C)=O`, the figure is 12 µg/mL (≈ 36.4 µM); as for `CCCOc1cccc(C(=O)NCCNC(=O)c2ccc(C)nc2)c1`, greater than 51.2 µg/mL; as for `COc1ccc(C2SCC(=O)N2c2ccc(F)cc2)cc1` (stereo unspecified), 35.2 µg/mL (≈ 116 µM).

On to `CC12CN3CC(C)(CN(C1)C3c1ccc(F)cc1)C2` (stereo unspecified), for which the kinetic solubility came to 26.2 µg/mL (≈ 101 µM). This solubility kinetic and that of the compound before are within 1.5-fold of each other. `CCC(=O)c1cn(Cc2ccccc2)c2ccccc12`: the solubility (kinetic) was determined as 1 µg/mL (≈ 3.8 µM). For `COc1ccc(OC)c(NC(=O)CSc2nc(O)cc(=O)n2CC(C)C)c1` the value was greater than 59 µg/mL. For `O=C(Nc1ccc2c(c1)OCO2)C1CC1(Cl)Cl` (stereo unspecified) the value was greater than 41.1 µg/mL; for `Cc1ccc(N2C(=O)CCC2=O)c(C)c1`, 28 µg/mL (≈ 138 µM); for `O=C(CCCc1ccccc1)NC12CC3CC(CC(C3)C1)C2`, 11 µg/mL (≈ 37 µM). The compound `Cn1c(=O)oc2cc(S(=O)(=O)NCc3ccc(C(=O)O)cc3)ccc21` gave a kinetic solubility greater than 54.4 µg/mL. For `CC1CCN(C2(O)C(=O)Nc3ccc(Cl)cc32)CC1` (stereo unspecified) the value was greater than 42.1 µg/mL; for `CN(C)c1cccc(C(=O)OCC(=O)NC(=O)NCc2ccccc2)c1`, 2.6 µg/mL (≈ 7.32 µM); for `COc1ccc(CC(=O)NCCC2=CCCCC2)cc1`, greater than 41 µg/mL. For `Cc1ccc(NC(=O)COC(=O)C2(CC(=O)NC(C)C)CCCC2)cc1C` the value was 3.6 µg/mL (≈ 9.61 µM); for `Cc1cccc(C(=O)NCC(=O)N2CCOCC2)c1`, greater than 39.3 µg/mL. For `COc1ccc(S(=O)(=O)N2CCCCCC2)cc1NC(=O)Cc1ccc(OC)c(OC)c1` the value was 22.1 µg/mL (≈ 47.8 µM). `CCN(CC(=O)NCc1cccs1)C(=O)Cc1ccc(Cl)c(Cl)c1` came in with a solubility (kinetic) greater than 57.8 µg/mL. As for `Cc1ccc(S(N)(=O)=O)cc1NC(=O)c1ccc2c3c(cccc13)CC2`, the figure is 3.1 µg/mL (≈ 8.46 µM); as for `C=CCN(c1ccccc1OC)S(=O)(=O)c1cccc(C(=O)OCC(=O)N2CC(C)OC(C)C2)c1` (stereo unspecified), 52.7 µg/mL (≈ 105 µM); as for `O=C(C1=C(O)C(=O)N(CC2CCCO2)C1c1ccccc1)c1ccco1` (stereo unspecified), 41.8 µg/mL (≈ 118 µM). As for `Cc1nccn1CC(O)COc1ccc(Cl)cc1Cl` (stereo unspecified), the figure is greater than 45.2 µg/mL; as for `O=C1CS/C(=N/N=C/c2ccncc2)N1`, greater than 33 µg/mL; as for `C#CC(CC)(CC)NC(=O)/C=C/C(=O)O`, 27.7 µg/mL (≈ 132 µM). For `COC(=O)c1c(NC(=O)c2ccc(C)cc2)csc1C` the value was less than 0.6 µg/mL.

The values are drawn from PubChem BioAssay AID1996.
